These results are taken from ChEMBL document CHEMBL1799965, “Synthesis of useful fragments in drug discovery: 2-Amino-5-tert-butylpyridine and its oxidised analogues” (Bioorg Med Chem Lett, 2011).

The nature of series [1]: Solubility of the compound in buffer at pH 6.8. It is filed as physicochemical.
Series [2] is described as follows: Membrane affinity to immobilized artificial membrane by HPLC method. It is filed as physicochemical.
The nature of series [3]: Lipophilicity, Log D of the compound by HPLC method. It is filed as physicochemical.
For a further series, the target named is Albumin (Homo sapiens, UniProt P02768). The series can be described thus: Binding affinity to human serum albumin by HPLC method.
Series [4] can be described thus: Solubility of the compound in simulated fasted intestinal fluid. It is filed as physicochemical. Conditions: simulated gi fluid.

Molecules are shown by their SMILES. ≈ marks a conversion by molar mass, not a printed value. A value given as a limit tells only on which side of the number the result lay.

Chain of Albumin (P02768 whole entry): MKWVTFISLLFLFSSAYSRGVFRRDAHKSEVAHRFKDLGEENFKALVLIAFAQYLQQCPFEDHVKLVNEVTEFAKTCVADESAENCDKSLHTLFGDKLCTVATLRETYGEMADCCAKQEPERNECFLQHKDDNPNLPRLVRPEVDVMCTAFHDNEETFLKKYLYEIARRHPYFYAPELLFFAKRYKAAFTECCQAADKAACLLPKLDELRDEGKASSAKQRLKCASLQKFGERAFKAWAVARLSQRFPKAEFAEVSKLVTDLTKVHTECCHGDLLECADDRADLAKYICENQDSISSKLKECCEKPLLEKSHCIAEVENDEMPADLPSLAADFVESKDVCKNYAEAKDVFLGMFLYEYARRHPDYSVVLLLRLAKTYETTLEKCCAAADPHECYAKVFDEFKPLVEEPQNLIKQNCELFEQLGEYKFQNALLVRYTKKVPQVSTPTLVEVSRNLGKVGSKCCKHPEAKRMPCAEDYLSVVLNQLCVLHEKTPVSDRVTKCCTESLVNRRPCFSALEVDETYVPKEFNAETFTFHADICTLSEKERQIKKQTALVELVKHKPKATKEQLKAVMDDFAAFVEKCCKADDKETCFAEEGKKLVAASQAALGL

The term solubility denotes how much of the substance goes into solution per volume. Low values mean little dissolved substance, high ones much dissolved substance. A word on the logD: it is the decadic logarithm of the distribution of all forms, ionised or not, between an organic phase and buffer at a given pH. A high value points to a more lipophilic compound. Turning to `CC(C)(C)c1ccc(N)cc1`, the solubility in series [1] and in series [4] was < 5 µM in each case. Besides, the CHI in series [2] amounted to 35.5. The logD in series [3] was determined as 2.83. The compound further yielded an Activity at Albumin of 78.5%.

With `CC(C)(C)c1ccc(N)nc1`, the solubility in series [1] was 59 µM (≈ 8.86 µg/mL); in series [4], 72 µM (≈ 10.8 µg/mL). Moreover, the CHI in series [2] came out at 33. Moreover, the logD in series [3] amounted to 1.53. The compound further registered an Activity on Albumin of 38.9%.
